Laboratory results reported in patent publication EP1101496A1, “THERAPEUTIC AGENTS FOR ALLERGIC DISEASES” (FUJI YAKUHIN KOGYO KABUSHIKI KAISHA, priority 1998, dated 2000).

Experiments:
[1] = Mouse body weight gain (side-effect index); assay type: in vivo, mice; settings: average ± standard deviation; once a day Days 0-5; Compound No. 8 or 10 60 mg/kg s.c., prednisolone 10 mg/kg i.p.
Procedure: Next the mice were measured for their body weight.

[2] = test system: Type IV Allergic Dermatitis; assay: Type IV allergic dermatitis (oxazolone-induced auricle edema); assay type: in vivo, Mice (male, Balb/c)
Procedure: Mice (male, Balb/c, 6 weeks old, 20 to 25 g) were sensitized by painting a 3% solution of oxazolone (100 µL) abdominally. Six days after sensitization, a 0.5% solution of oxazolone in acetone was painted on both sides of a right ear at a dose of 10 µL to raise auricle edema. An untreated group was painted with the solvent (acetone) alone onto both sides of a left ear of the same mouse at 10 µL. At 24 hours after edema-induction, each mouse was sacrificed with ether and an equivalent each of right and left auricles was stamped out with a puncher (diameter: 6 mm). Both left and right auricle sections were measure for their weight and each percent edema was calculated (Kazuo Ouchi (Ed.), "Seibutsu Yakukagaku Jikken Koza, Ensho To Allergy (Inflammation and Allergy) I-1", 1993, Hirokawa Publishing Co., Japan) Percent Edema (%) =((Right Auricular Segment Weight - Left Auricular Segment Weight))/(Left Auricular Segment Weight)× 100 [formula]
A solution of a test metalloproteinase inhibitor (Compound No. 8, 50 mg/mL) in ethanol was painted onto both sides of a right auricle at 10 µL per side twice, i.e., 0.5 hr prior to edema-induction and 6 hours after edema-induction. The solvent (ethanol) alone was painted on a left auricle at the same dose ([…]). […]

[3] = test system: Allergic Rhinitis; assay: Allergic rhinitis model (nasal airway resistance); assay type: in vivo, Guinea pigs; settings: 15 mg/kg s.c. one hour prior to rhinitis-induction; 20 minutes after antigen-challenge
Procedure: Guinea pigs (male, Std:Hartley, 3 weeks old) were housed and fed in a aluminum cage at a rate of up to 5 animals per cage. After acclimatization for 1 week, the guinea pigs were administered intravenously with an anti-ovalbumin antibody (Nihon Bioresearch Inc., Hajima Institute; antibody titer by a 3-hour homologous passive cutaneous anaphylaxis reaction, 1 : 8192) prepared according to the Orange & Moore method (Orange, R. P. and Moore, E. G., The Journal of Immunology 116: p.392-397, 1976) into their auricle vein at a dose of 0.3 mL/animal for passive sensitization. Twenty four to twenty six hours after sensitization under conditions of fast and free access to drinking water, the sensitized guinea pigs were anesthetized with urethane (1.2 g/kg, intraperitoneal administration), fixed in a supine position, and mediad excised cervically to expose tracheas. […] Variations of the ventilatory overflow were quantitatively recorded on a recticoder (RECTI-HORIZ-8K, Nippon Denki Sanei K.K.) for 20 minutes after antigen-challenge.
Wave height (cm) was measured on recorded papers and a nasal airway resistance value was calculated according to the following formula: Percent Increase (%) in Nasal Airway Resistance =((Observed Value)-(Value prior to Administration))/((Complete Obstruction)-(Value prior to Administration))× 100 [formula] […]

## CNC(=O)[C@H](Cc1ccc(NC(=N)N)cc1)NC(=O)[C@H](CC(C)C)C(CCCc1ccccc1)C(=O)NO (single isomer, unassigned) [Compound No. 8, N-[4-(N-hydroxyamino)-2(R)-isobutyl-3(R or S)-(3-phenyltrimethylene)succinyl]-L-4'-guanidophenylalanine-N-methylamide 1 acetate]
[1]
  Body Weight Gain, Day 5: 0.57± 0.61
  Body Weight Gain, Day 7: 0.77± 0.55
  Body Weight Gain, Day 10: 1.20± 0.26
[2]; 50 mg/mL in ethanol, 10 µL per side painted on right auricle 0.5 hr prior to and 6 hours after edema-induction, 24 hours after induction
  therapeutic potency on the development of auricle edemas (FIG. 12): amelioration of auricle edemas
[2]; unsensitized mice, 50 mg/mL in ethanol painted on auricle
  effect of the compound alone on auricles (unsensitized group, FIG. 12): almost free of swelling and/or thinning
[3]
  increase in nasal airway resistance due to antigen challenge (FIG. 14): markedly ameliorates an increase in nasal airway resistance
